{"source": "paper PMC7329864", "about": "“Role of water in cyclooxygenase catalysis and design of anti-inflammatory agents targeting two sites of the enzyme” (Scientific Reports, 2020)", "key": {"wt COX-2": {"biological_target": "T1, wt COX-2 (Homo sapiens, UniProt P35354)", "T1 construct": "purchased Cayman Chemical Co. item no; 560131", "T1 sequence (P35354 18-604)": "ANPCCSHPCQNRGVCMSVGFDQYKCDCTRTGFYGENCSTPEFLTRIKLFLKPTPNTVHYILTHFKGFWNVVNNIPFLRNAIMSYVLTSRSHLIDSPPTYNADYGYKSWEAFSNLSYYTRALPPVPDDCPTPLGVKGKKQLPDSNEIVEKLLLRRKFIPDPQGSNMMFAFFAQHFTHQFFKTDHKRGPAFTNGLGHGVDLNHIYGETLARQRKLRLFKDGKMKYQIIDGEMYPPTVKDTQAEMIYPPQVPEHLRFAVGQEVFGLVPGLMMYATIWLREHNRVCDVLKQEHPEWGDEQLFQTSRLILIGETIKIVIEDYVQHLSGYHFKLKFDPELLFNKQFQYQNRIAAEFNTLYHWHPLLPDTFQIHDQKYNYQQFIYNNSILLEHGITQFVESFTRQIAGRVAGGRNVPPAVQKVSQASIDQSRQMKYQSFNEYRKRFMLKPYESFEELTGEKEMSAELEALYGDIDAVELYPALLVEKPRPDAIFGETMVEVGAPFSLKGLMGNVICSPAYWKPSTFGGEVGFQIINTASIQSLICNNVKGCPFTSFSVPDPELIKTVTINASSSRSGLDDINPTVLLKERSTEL", "assay": "COX inhibitory enzyme immunoassay (COX-2)", "type": "biochemical", "description": "All the compounds of Fig. 9 were screened for COX-1/2 inhibitory activity in triplicate at 10^–4–10^–8 M concentration by performing enzyme immunoassays. The activity of the compounds was quantified in terms of amount of prostaglandins produced by the enzymes in the presence of different concentrations of the compound.\nFor studying the COX-1, COX-2 inhibitory activities of the compounds, various reagents were prepared as per the protocol of the assays. The compounds were screened in triplicate at 10^–4–10^–8 M concentration using the procedure as described in the previous report."}, "COX-2": {"biological_target": "T2, COX-2 (Homo sapiens, UniProt P35354)", "T2 sequence (P35354 18-604)": "T1 sequence (P35354 18-604)", "assay": "UV-Vis and fluorescence studies of interaction with COX-2", "type": "binding", "description": "In order to support in-silico experiments, the interactions of 1, 13d and 15d with COX-2 were checked with UV–vis and fluorescence spectral techniques. […] The appearance of level-off in the visible region (500–700 nm) was attributed to the Mie scattering due to the formation of aggregates. […] Corroborating the results of molecular modelling studies, the changes in the UV–Vis spectra as well as the fluorescence spectrum of the compound on addition of COX-2 probably occurred due to the HOMO–LUMO interactions between 1 and the enzyme (Figure S26). The linear Stern–Volmer plot of decrease in fluorescence intensity at 567 nm on increasing COX-2 concentration gave Stern–Volmer constant Ksv 3.30 × 10^4 M^-1. The detection limit of the compound for COX-2 was 0.02 nM (Figure S26C,D).\nIn order to support in-silico experiments, the interactions of 1, 13d and 15d with COX-2 were checked with UV-vis and fluorescence spectral techniques. […] The appearance of level-off in the visible region (500-700 nm) was attributed to the Mie scattering due to the formation of aggregates. […] Corroborating the results of molecular modelling studies, the changes in the UV-Vis spectra as well as the fluorescence spectrum of the compound on addition of COX-2 probably occurred due to the HOMO-LUMO interactions between 1 and the enzyme (Figure S27). The linear Stern-Volmer plot of decrease in fluorescence intensity at 567 nm on increasing COX-2 concentration gave Stern-Volmer constant Ksv 3.30x10^4 M^-1. The detection limit of the compound for COX-2 was 0.02 nM (Figure 27C, 27D)."}, "Swiss albino mice": {"system": "Swiss albino mice", "assay": "Formalin induced pain (flinchings), analgesic activity and mechanistic pretreatments", "type": "in vivo", "description": "Since it is known to produce biphasic pain response—the neurogenic pain and the inflammatory phase, 2% formalin injection was given in the right hind paw of the animals (20 µL) and the response was quantified by counting the number of flinching after 30 min of the compound 1 treatment. The inflammatory phase has been reported in the current investigation since the cyclooxygenase inhibitors are known to ameliorate the latter phase. The involvement of cyclooxygenase and lipooxygenase pathways was studied by pretreatment with substance P and nitric oxide pathway was studied by pretreatment with L-arginine and L-NAME as previously described. Anti-inflammatory activity was examined by using carageenan induced paw edema as per the previous report.\nSwiss albino mice of either sex (25–35 g) were used for determining the analgesic and anti-inflammatory activity of the compounds. The animals were maintained at 22 ± 2 °C under 12 h light/12 h dark cycle with free supply of food and water. The study was approved by the IAEC of Guru Nanak Dev University, Amritsar, Punjab, India. A total of six groups of animals with 5 animals in each group were used. The experimental procedure as described in our previous report[52],[57] was used for studying the analgesic and anti-inflammatory activity of the compounds. All the treatments were given intraperitoneally (i.p.).\nMechanistic studies. Three groups of mice with 5 animals in each group were taken for exploring the inhibition of COX and LOX and modulation of nitric oxide pathway. For COX and LOX pathways, the animals were pretreated with substance P, 30 min before administering 1. For nitric oxide pathway, animals were pretreated with nitric oxide precursor, L-arginine and NOS inhibitor, L-NAME, 30 min before administering 1. The details of the protocols are described in previous reports[52],[57]."}}, "data": [{"compound": "O=C1NC(=O)C(=Cc2cn(CCCCCCn3c4ccccc4c(=O)c4ccccc43)c3ccccc23)C(=O)N1", "note": "[Compound 1]", "values": [{"measurement": "IC50", "setting": "wt COX-2; enzyme immunoassay, screened at 10^–4–10^–8 M, average of 3 experiments, SD ± 0.5 µM", "result": 60, "unit": "nM"}, {"measurement": "SI (IC50(COX-1)/IC50 (COX-2)", "setting": "wt COX-2; selectivity index COX-1/COX-2", "result": "1,000"}, {"measurement": "decrease in fluorescence intensity (quenching) in the presence of COX-2", "setting": "COX-2; addition of COX-2 in Tris–HCl buffer pH 7.25 to solution of compound", "result": "significant quenching"}, {"measurement": "detection limit of the compound for COX-2", "setting": "COX-2; fluorescence intensity at 567 nm vs [COX-2], Tris–HCl buffer pH 7.25", "result": 0.02, "unit": "nM"}, {"measurement": "Stern–Volmer constant Ksv", "setting": "COX-2; fluorescence quenching at 567 nm by COX-2, 0.5 µM compound, Tris–HCl buffer pH 7.25", "result": 33000, "unit": "M⁻¹"}, {"measurement": "reversal of formalin induced analgesia", "setting": "Swiss albino mice", "result": 90, "unit": "%"}, {"measurement": "number of flinchings in neurogenic and inflammatory phase of formalin induced pain", "setting": "Swiss albino mice; 10 mg kg^−1, i.p., 2% formalin 30 min after treatment, comparable to indomethacin", "result": "significant decrease"}, {"measurement": "modulation (attenuation) of analgesic effect by L-NAME pretreatment", "setting": "Swiss albino mice; L-NAME (NOS inhibitor) 30 min before compound", "result": "did not"}, {"measurement": "modulation of analgesic effect by L-arginine pretreatment", "setting": "Swiss albino mice; L-arginine (NO precursor) 30 min before compound", "result": "attenuated the analgesic effect of 1 partially"}, {"measurement": "modulation of analgesic effect by Substance P pretreatment", "setting": "Swiss albino mice; Substance P 30 min before compound, complete reversal not evident", "result": "attenuated the analgesic effect"}]}]}
